Laboratory results: patent US4075332A (priority 1976, dated 1978)
Where two headings read alike, the source gives them in different places.

What was measured:
Spider mites [1] = assay: Mite, Systemic; format: in vivo, two-spotted mite; conditions: Tetranychus urticae, read-out: Mortality Produced, % - Spider Mites Systemic
Procedure: (§1) In the insecticidal and miticidal tests, the experimental compounds were tested as aqueous emulsions. These emulsions were prepared by dissolving the compound in acetone and dispersing it in distilled water with Triton X-100, an alkylaryl polyether alcohol derived by the reaction of i-octylphenol with ethylene oxide, to give spray emulsions containing the desired concentrations of the compound. These emulsions were then used in standard laboratory tests described below.
Mite, Systemic: Bean plants infested with the two-spotted mites were treated by applying 20 ml. of the formulated test chemical to the soil.

Bean aphids [2] = assay: Aphid, Systemic; format: in vivo, bean aphid; conditions: Aphis fabae, 48 h, read-out: Mortality Produced, % - Bean Aphids Systemic
Procedure: as §1
Aphid, Systemic: Nasturtium plants infested with the bean aphid were treated by applying 20 ml. of the formulated test chemical to the soil. The degree of aphid control was rated after 2 days.

Root-knot nematode = conditions: in vivo
Corn earworm = assay: Field control of corn earworm on corn (Example 28); format: in vivo
From the text: (§2) Corn plots were planted on March 22. Each treatment was made on a 50 ft. row flanked by guard rows. Treatments were replicated 4 times and the average rating is reported. Except for insecticide treatment, the plots were managed in accordance with recommended farming practice for the area.
Corn earworm applications were made during silking on May 29, June 1, 2, 3, 4, 5, 8, 9, 10, 11 and 12. Readings were made on June 15.

Fall armyworm = assay: Field control of fall armyworm on sweet corn (Example 28); format: in vivo
Procedure: as §2
Fall armyworm plots on sweet corn were treated on May 13, 20 and 27. Readings were made on May 29.

Cabbage looper [3] = assay: Field control of cabbage looper on cabbage (Example 28); format: in vivo; conditions: Table XVI; 1.5 lbs/acre; nil 5.9; higher ratings indicate more damage
From the text: (§3) King Cole cabbage and Vates Collards were transplanted on Feb. 1. Cabbage treatments were made on 50 ft. rows and replicated 4 times. Collard treatments were made on 25 ft. rows and replicated 4 times. Collard and cabbage rows were placed side-by-side and were flanked by guard rows. Except for insecticide treatment, the plots were managed in accordance with recommended farming practice for the area. Chemicals were applied on April 3, 10, 17, 24, May 1, 8, 15, 22 and 29, and readings were made on June 1.

Cabbage looper [4] = assay: Field control of cabbage looper on collards (Example 28); format: in vivo; conditions: Table XVI; 1.5 lbs/acre; nil 5.3; higher ratings indicate more damage
From the text: as §3

Southern army worm = conditions: in vivo
Mexican bean beetle [5] = conditions: in vivo
Spider mites [6] = conditions: two-spotted spider mite, in vivo, 48 h
House fly [7] = conditions: in vivo, 48 h
in vivo = conditions: rat, po
Mexican bean beetle [8] = assay: whole plant or invertebrate; conditions: Epilachna varivestis
Spider mites [9] = assay: whole plant or invertebrate; conditions: Tetranychus urticae
Bean aphids [10] = assay: whole plant or invertebrate; conditions: Aphis fabae, 48 h
House fly [11] = assay: whole plant or invertebrate; conditions: Musca domestica, 48 h
Corn rootworm larvae = assay: whole plant or invertebrate; conditions: soil, 120 h
[12] = read-out: Mortality Produced, % - Mex.Bean Beetle
[13] = 48 h, read-out: Mortality Produced, % - Spider Mites Contact
[14] = read-out: Mortality Produced, % -
[15] = read-out: Mortality Produced, % - Bean Aphids Contact
[16] = read-out: Mortality Produced, % - House Flies

With CCCSP(=O)(OCC)SCC(C)SC (centres unmarked) [Example 32, O-Ethyl S-1-Propyl S'-2-Methylthiopropyl dithiophosphate] the mortality at 50 ppm (Spider mites [1]) was 100%, the mortality at 250 ppm (Spider mites [1]) was 100% and the mortality at 50 ppm (Bean aphids [2]) was 0%. The mortality at 250 ppm (Bean aphids [2]) was 100%, the “Nematode Control,%” value (Root-knot nematode) was 100% and the “Nematodes Control % at 25 lb/acre” value (Root-knot nematode) was 100%. The “control of corn earworms (in words)” value (Corn earworm; 0.5 lbs per acre) was “excellent control”, the “Corn Earworm, % Clean Ears” value (Corn earworm; Table XVI, 0.5 lbs/acre, nil 36) was 94% and the “Fall Armyworm Injury Free Stalks of Sweet Corn, %” value (Fall armyworm; Table XVI, 0.75 lbs/acre, nil 67) was 91%. The “control of fall armyworm (in words)” value (Fall armyworm; sweet corn, 0.75 lbs. per acre) was “well controlled”, the “Cabbage Looper Harvest Rating - Cabbage” value (Cabbage looper [3]) was 3.8 and the “Cabbage Looper Harvest Rating - Collards” value (Cabbage looper [4]) was 2.0. The “S.Armyworm Mortality,%” value (Southern army worm) was 100%, the “Mortality Produced at 50 ppm, % - Southern Army Worm” value (Southern army worm; southern armyworm) was 100% and the “Mortality Produced, % - S.Army Worm” value (Southern army worm; southern armyworm) was 100%. The “Mortality Produced, % - Mex.Bean Beetle” value (Mexican bean beetle [5]) was 100%, the “Mortality Produced, % - Spider Mites Contact” value (Spider mites [6]) was 100% and the “Mortality Produced, % - House Flies” value (House fly [7]) was 100%. For the same compound, the LD50 at 336 h (in vivo) was 109 mg/kg, the mortality at 50 ppm (Mexican bean beetle [8]; read-out: Mexican Bean Beetles Mortality,%) was 100% and the mortality at 50 ppm (Mexican bean beetle [8]; read-out: Mortality Produced at 50 ppm, % - Mexican Bean Beetles) was 100%. It also gave a mortality at 50 ppm (Mexican bean beetle [8]; [12]) of 100%, a mortality at 250 ppm (Mexican bean beetle [8]; [12]) of 100% and a mortality at 50 ppm (Spider mites [9]; [13]) of 100%. The mortality at 250 ppm (Spider mites [9]; [13]) was 100%, the mortality at 50 ppm (Spider mites [9]; read-out: Mortality Produced at 50 ppm, % - Spider Mites) was 100% and the mortality at 10 ppm (Spider mites [9]; read-out: Spider Mites Mortality,%) was 100%. It also gave a mortality at 50 ppm (Bean aphids [10]; read-out: Bean Aphids Mortality,%) of 100%, a mortality at 50 ppm (Bean aphids [10]; read-out: Mortality Produced at 50 ppm, % - Bean Aphids) of 100% and a mortality at 50 ppm (Bean aphids [10]; [14]) of 100%. The mortality at 250 ppm (Bean aphids [10]; [14]) was 100%, the mortality at 50 ppm (Bean aphids [10]; [15]) was 100% and the mortality at 250 ppm (Bean aphids [10]; [15]) was 100%. It also gave a mortality at 50 ppm (House fly [11]; read-out: Mortality Produced at 50 ppm, % - Houseflies) of 100%, a mortality at 50 ppm (House fly [11]; [16]) of 100% and a mortality at 250 ppm (House fly [11]; [16]) of 100%. For the same compound, the mortality at 2.5 ppm (Corn rootworm larvae; read-out: Corn Rootworm Mortality, % at 2.5 ppm) was 100% and the mortality at 2.5 ppm (Corn rootworm larvae; read-out: Corn Rootworm Mortality,%) was 100%.
